From patent US9353091B2 (priority 2009, dated 2016)

What was measured:
[1] = biological target: T1, HCV polymerase 1A (Δ21 NS5B) (Hepatitis C virus genotype 1a, UniProt P27958); test: HCV Polymerase Inhibition Assay (1a); type: biochemical
T1 construct: 20 to 50 nM Δ21 NS5B
Protocol: (§1) Reaction volume was 50 μL. The reaction was terminated by the addition of 1 volume of 4 mM spermine in 10 mM Tris-Cl pH 8.0, 1 mM EDTA. After incubation for at least 15 minutes at room temperature, the precipitated RNA was captured by filtering through a GF/B filter (Millipore) in a 96 well format. The filter plate was washed three times with 200 μL, each of 2 mM spermine, 10 mM Tris-Cl pH 8.0, 1 mM EDTA, and 2 times with ethanol. After air-drying, 30 μL, of Microscint 20 scintillation cocktail (Packard) was added to each well, and the retained cpm were determined by scintillation counting. […] Retained cpm were plotted vs. inhibitor concentration and fit to equation 1 using non-linear regression (ref. 1) to obtain the IC50 values: Retained cpm=A[sqrt{(IC50+It−Et)^2+4*IC50*Et}−(IC50+It−Et)]
(§2) Ref. Morrison, J. F. and S. R. Stone. 1985. Approaches to the study and analysis of the inhibition of enzymes by slow- and tight-binding inhibitors. Comments Mol. Cell. Biophys. 2: 347-368.
(§3) The sequence of the template RNA used was: 5′-[…] […] […] […] […] […] […] […] […] […] […] […] […] […] […] […] […]-3′ (SEQ ID NO: 1)

[2] = biological target: T2, HCV polymerase 1B (Δ21 NS5B) (Hepatitis C virus genotype 1b, UniProt P26663); test: HCV Polymerase Inhibition Assay (1b); type: biochemical
T2 construct: 20 to 50 nM Δ21 NS5B
Protocol: as §1, §2, §3

[3] = system: genotype 1a-H77 subgenomic replicon cell line; test: HCV Polymerase Replicon Assay (genotype 1a-H77, luciferase reporter); type: cell-based; details: Hepatitis C virus, 72 h, 1a-H77 replicon, three days
[4] = system: genotype 1b-Con1 subgenomic replicon cell line; test: HCV Polymerase Replicon Assay (genotype 1b-Con1, luciferase reporter); type: cell-based; details: Hepatitis C virus, 72 h, 1b-Con1 replicon, three days

T1 sequence (P27958 2421-2990, stated change not applied): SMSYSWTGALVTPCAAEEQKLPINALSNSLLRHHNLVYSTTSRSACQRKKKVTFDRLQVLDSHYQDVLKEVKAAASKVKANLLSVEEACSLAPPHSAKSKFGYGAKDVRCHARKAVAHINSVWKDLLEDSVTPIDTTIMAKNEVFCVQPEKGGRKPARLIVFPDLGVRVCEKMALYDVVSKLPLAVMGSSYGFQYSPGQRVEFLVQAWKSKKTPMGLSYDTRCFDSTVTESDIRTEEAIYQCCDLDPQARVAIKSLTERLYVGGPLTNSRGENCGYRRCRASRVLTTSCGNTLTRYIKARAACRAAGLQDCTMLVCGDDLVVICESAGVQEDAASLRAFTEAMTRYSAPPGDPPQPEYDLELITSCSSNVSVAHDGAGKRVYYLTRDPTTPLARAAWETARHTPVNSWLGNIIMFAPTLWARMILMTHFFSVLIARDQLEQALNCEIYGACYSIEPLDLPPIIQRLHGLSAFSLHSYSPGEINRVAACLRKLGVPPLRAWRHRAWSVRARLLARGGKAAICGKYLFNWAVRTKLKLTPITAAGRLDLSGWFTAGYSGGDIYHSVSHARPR
T2 sequence (P26663 2420-2989, stated change not applied): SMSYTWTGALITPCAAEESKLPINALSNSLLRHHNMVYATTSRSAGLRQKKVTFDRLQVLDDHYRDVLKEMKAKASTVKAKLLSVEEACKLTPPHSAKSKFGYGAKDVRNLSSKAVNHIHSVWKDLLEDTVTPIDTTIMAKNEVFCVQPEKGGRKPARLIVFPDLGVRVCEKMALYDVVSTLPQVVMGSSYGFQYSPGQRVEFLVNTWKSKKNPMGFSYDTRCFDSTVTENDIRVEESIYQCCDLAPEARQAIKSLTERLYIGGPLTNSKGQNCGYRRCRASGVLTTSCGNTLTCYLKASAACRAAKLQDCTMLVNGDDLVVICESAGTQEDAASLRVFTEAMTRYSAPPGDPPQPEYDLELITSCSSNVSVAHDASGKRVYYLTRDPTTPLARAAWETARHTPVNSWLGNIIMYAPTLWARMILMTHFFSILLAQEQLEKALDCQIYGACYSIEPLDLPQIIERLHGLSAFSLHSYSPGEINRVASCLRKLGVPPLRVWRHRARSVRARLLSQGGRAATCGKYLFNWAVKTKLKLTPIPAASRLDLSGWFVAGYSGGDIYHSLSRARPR

SMILES | IC50 [1] | IC50 [2] | EC50 [3] | EC50 [4]
COc1c(-c2ccc3cc(NS(C)(=O)=O)ccc3c2)cc(-c2ccc(=O)[nH]c2)cc1C(C)(C)C [compound 10, N-(6-(3-tert-butyl-2-methoxy-5-(6-oxo-1,6-dihydropyridin-3-yl)phenyl)naphthalen-2-yl)methanesulfonamide] | 100 to 1000 nM | > 1000 nM | 100 to 1000 nM | > 1000 nM
CC(C)(C)c1cc(-c2c[nH]c(=O)[nH]c2=O)cc(-c2ccc3cc(NS(C)(=O)=O)ccc3c2)c1I [compound 34, N-(6-(3-tert-butyl-5-(2,4-dioxo-1,2,3,4-tetrahydropyrimidin-5-yl)-2-iodophenyl)naphthalen-2-yl)methanesulfonamide] | < 10 nM | 10 to 100 nM | 100 to 1000 nM | 10 to 100 nM
COc1c(-c2ccc3cc(NS(C)(=O)=O)ccc3c2)cc(N2C(=O)CN=C2O)cc1C(C)(C)C [compound 15, N-(6-(3-tert-butyl-5-(2-hydroxy-5-oxo-4,5-dihydro-1H-imidazol-1-yl)-2-methoxyphenyl)naphthalen-2-yl)methanesulfonamide] | < 10 nM | 10 to 100 nM | 100 to 1000 nM | 10 to 100 nM
COc1c(-c2ccsc2)cc(-c2c[nH]c(=O)[nH]c2=O)cc1-c1ccc2cc(NS(C)(=O)=O)ccc2c1 [compound 43, N-(6-(5-(2,4-dioxo-1,2,3,4-tetrahydropyrimidin-5-yl)-2-methoxy-3-(thiophen-3-yl)phenyl)naphthalen-2-yl)methanesulfonamide] | < 10 nM | < 10 nM | 100 to 1000 nM | 10 to 100 nM
COc1c(/C=C/c2ccc(NS(C)(=O)=O)cc2)cc(-c2c[nH]c(=O)[nH]c2=O)cc1C(F)(F)F [compound 50, (E)-N-(4-(5-(2,4-dioxo-1,2,3,4-tetrahydropyrimidin-5-yl)-2-methoxy-3-(trifluoromethyl)styryl)phenyl)methanesulfonamide] | 10 to 100 nM | 10 to 100 nM | 100 to 1000 nM | 10 to 100 nM
COc1c(-c2ccc3cc(NS(C)(=O)=O)ccc3c2)cc(-c2c[nH]c(=O)[nH]c2=O)cc1C(F)(F)C(F)(F)F [compound 37, N-(6-(5-(2,4-dioxo-1,2,3,4-tetrahydropyrimidin-5-yl)-2-methoxy-3-(perfluoroethyl)phenyl)naphthalen-2-yl)methanesulfonamide] | < 10 nM | 10 to 100 nM | 100 to 1000 nM | 10 to 100 nM
COc1c(-c2ccc3cc(NS(C)(=O)=O)ccc3c2)cc(N2CCOC2=O)cc1C(C)(C)C [compound 25, N-(6-(3-tert-butyl-2-methoxy-5-(2-oxooxazolidin-3-yl)phenyl)naphthalen-2-yl)methanesulfonamide] | 100 to 1000 nM | 100 to 1000 nM | > 1000 nM | > 1000 nM
COc1c(-c2ccc3cc(NS(C)(=O)=O)ccc3c2)cc(-c2c[nH]c(=O)[nH]c2=O)cc1-c1cccs1 [compound 39, N-(6-(5-(2,4-dioxo-1,2,3,4-tetrahydropyrimidin-5-yl)-2-methoxy-3-(thiophen-2-yl)phenyl)naphthalen-2-yl)methanesulfonamide] | < 10 nM | < 10 nM | 10 to 100 nM | ≤ 10 nM
